In US8778643B2, “Methods for increasing lipid levels and producing triacylglycerols in algae” (priority 2012, dated 2014):
Values joined by “and” are separate entries in the source; they are usually repeats but may differ in a detail not shown here. Equal entries are not always repeated. “Also recorded” adds a separate entry of the source. Where two headings read alike, the source gives them in different places.

Experiments:
[1] = system: Phaeodactylum tricornutum; assay: Microplate assay: growth (absorbance 680 nm) and intracellular lipids (Nile Red fluorescence); assay type: cell-based; settings: for increase in lipid levels: higher concentrations
[2] = system: Nannochloris sp.; assay: as above; assay type: cell-based
[3] = system: Nannochloropsis oculata; assay: Lipid composition of batch culture extracts (fatty acid saturation / PUFA by 1H NMR, MALDI-TOF, GC/MS); assay type: cell-based; settings: for SFAs (% of total lipids) / n3 PUFAs (% of UFAs) / All other PUFAs and MUFAs (% of UFAs) / UFAs (% of total lipids): 1H NMR; for SFAs (% of total lipids): Normal 24; for n3 PUFAs (% of UFAs): Normal 37; for All other PUFAs and MUFAs (% of UFAs): Normal 63; for UFAs (% of total lipids): Normal 76; for SFAs (%) / MUFAs (%) / n3 PUFAs (%) / PUFAs (%): N. oculata, n=1; for SFAs (%): Normal 0 ± 1; for MUFAs (%): Normal 4 ± 7; for n3 PUFAs (%): Normal 28 ± 4; for PUFAs (%): Normal 96 ± 7
Experimental: The nonpolar algal extracts were harvested from 500 mL cultures when indicated on growth curves, a minimum of 3 days into stationary phase. […] Cells were crushed and nonpolar lipids were extracted by sonication (Fisher Scientific Model 120 Sonic Dismembrator, ThermoFisher, San Jose) for 1 minute in chloroform, followed by chloroform-methanol extractions, washed with PBS butter, and dried under vacuum.^55-60 The crude non-polar algae extracts were then analyzed by ^1H Nuclear Magnetic Resonance (^1H NMR) for verification of TAG presence and examination of the purity of the extract (determination of level of chlorophyll). The extracts were then divided for analysis; one part for transesterification, one part to save as crude extract, and one part for SPE separation and MALDI-TOF analysis of TAGs.
Triacylglycerols can be isolated by solid-phase extraction (SPE) with 500 mg silica SPE cartridges (Silicycle, Quebec). The nonpolar extract is dissolved in 300 μL hexanes, and loaded on the SPE cartridge primed with hexanes. A mixture of 80:20:1 hexanes/diethyl ether/acetic acid was used as mobile phase to elute the TAGs.^61 SPE removes any chlorophyll in this process. Residual polar fraction containing polar lipids and chlorophyll was obtained by elution with acetone. All extracts and TAG fractions were dried under vacuum and stored under argon in amber vials at −20° C. before spectroscopic analysis. After SPE, the purified TAG fraction was reanalyzed with ^1H NMR spectroscopy for TAG characterization.
The TOF was in Reflectron mode with laser intensity from 5500-6500 Volts. Each acquisition consisted of 2500 shots with a focus mass of 900 Da, and a scan range of m/z 400-1100. Multiple acquisition scans were performed at different laser intensities to determine optimal conditions. Samples for the MALDI-TOF were diluted to 5 mg/mL in hexane, and spotted in the fast-evaporation method in a 1:2 ratio with DHB (2,5-dihydroxybenzoic acid) as the matrix. Re-spotting with methanol allowed for the matrix and sample to mix without hexane interactions, and allowed for better crystal formation. All samples on MALDI plate were allowed to dry before MS analysis. Data was normalized to base peak in all cases.
After the initial weight was recorded, the nonpolar extract set aside for transesterification was dissolved in 3.0 mL of 0.6 M sulfuric acid in methanol and stirred vigorously at 60° C. for 45 minutes.
Initial GC/MS temperature was 50° C. and end was 200° C. over at a one hour period for optimal FAME peak separation.
Peak assignment of fatty acids and their derivatives are based on NMR spectroscopic studies of previously reported algal lipid extracts^9 and comparison to standards such as olive oil (ACROS) and fatty acid mixtures.
We developed a quick and robust method to screen if the screened compound effect fatty acid saturation levels using ^1H NMR spectroscopy. The amount of saturated fatty acids (SFA), monounsaturated fatty acids (MUFAs), and polyunsaturated fatty acids (PUFAs) was determined using peak area ratios.
Calculated based on ^1H NMR integral ratios for the proton signals for the methyl group of PUFA components vs. the methyl groups of monounsaturated and saturated components.

[4] = system: Nannochloropsis oculata; settings: for increase in lipid levels (Nile Red): lower concentrations, >0.040 nM
Experimental: (§1) Stock cultures were aerated by stirring with bubbling air (homemade manifold with Petco air pump, 2-4% CO2) or by orbital shaking (Thermo Scientific MAXQ 2000) at a constant speed of 150 rpm at 22±3° C. with a 16:8 hour light/dark cycle. Stocks were kept at stationary phase for use. Algae were prepared as dictated by culture center.
(§2) Compounds were selected based on reported biological activity in non-microalgae organisms. To ensure that compounds retained their quality, they were stored under advised conditions after purchasing from the manufacturer. Solutions of all assay compounds were prepared as 10 mM stock solutions by dissolving in DMSO in 2-dram amber vials and then stored in darkness −20° C. 96-well PCR plates were used to create a stock plate layout that was then transferred to the algae microplates. A plate map was used to distribute each compound to a well based on molecule name, collection number, and CAS number. For 20 μM and 200 nM assay plates, 10 mM compound stock in DMSO was diluted into plate maps of 5 mM and 50 μM assay stocks, respectively.
(§3) All materials for assay experiments were autoclaved before each use to maintain axenic algae cultures. Algae species were checked for homogeneity using a TS-100 light microscope (Nikon, Japan). […] Diluted stock solutions were made immediately prior to use for consistency and optimal plate growth. Cell density was measured on a Thermo Scientific Genesys 10S Vis Spectrophotometer (ThermoFisher, San Jose), using a 1 mL cuvette at 680 nm.
(§4) Plates were originally run in triplicate, before replicates were increased to quadruplicate, along with a separate control plate to compare growth. Due to extensive evaporation in exterior wells over time, our unique algae plate layout was designed to use the 60 interior wells out of 96 wells for the experiment. The 36 outer wells were filled with Millipore water and media to prevent evaporation and edge effects in the inner algae wells, as well as serve as blanks. The 60 wells with algae contained a total volume of 251 μL (100 μL of media+DMSO compound stock +150 μL dilute algae stock). For 20 μM and 200 nM assay plates, 10 mM compound stock in DMSO is diluted into plate maps of 5 mM and 50 μM assay stocks, respectively. […] Plates were parafilmed during growth to limit the amount of evaporation that can occur. Plates were numbered, and numerically ordered to ensure they got the same shaker space.
(§5) The shakers are kept at a constant shaking of 150 rpm. Ambient temperature is 22±3° C.

[5] = system: microalgae; assay: Microplate assay (growth, Nile Red lipids), algae strain not stated
[6] = system: Phaeodactylum tricornutum; assay: 500 mL batch culture: growth, dry weight and lipid extract (gravimetric); assay type: cell-based
Experimental: (§6) Batch cultures were grown in 500 mL Pyrex media bottles with stirring and air bubbling (homemade manifold with Petco air pump, 2-4% CO2). Incoming air was sterile filtered by Polyvent 4 disposable filters (Whatman, Kent, UK). […] To minimize bacterial contamination, all equipment and materials were autoclaved and media was added to flask in a Purifier Vertical Clean bench (Labconco, Kansas City, Mo.). […] The amount of DMSO is standardized for all experiments to 0.4%.
(§7) For all compound cultures, the 2 mL DMSO stock solution was added to media (without algae) first and mixed well. Control cultures were grown without DMSO. DMSO controls consisted of 0.04-1.0% DMSO. After the addition of algae and media, the container was plugged with a bug stopper vented closure cap and mixed thoroughly. Absorbance is measured immediately for Day 0 analysis. Afterward, absorbance was measured every 1-2 days with a cuvette (1 mL volume) on the Thermo Scientific Genesys 10S V is Spectrophotometer (ThermoFisher, San Jose) at 680 nm.
(§8) Batch cultures were also repeated in triplicate and compared to a control culture grown at the same time. Algae were harvested and lipids were extracted for gravimetric analysis.
(§9) The nonpolar algal extracts were harvested from 500 mL cultures when indicated on growth curves, a minimum of 3 days into stationary phase.
(§10) Cell density was monitored by measuring absorbance at 680 nm every 1-2 days.
(§11) 500-mL cultures were harvested 6 days into stationary phase based on absorbance values. Cells were concentrated by centrifugation and lyophilization to remove water. Nonpolar lipids were extracted by sonication and solvent (chloroform-methanol and PBS buffer). […] Changes in lipid levels for batch cultures were determined by crude lipid extract mass.

[7] = system: Nannochloropsis salina; assay: as above; assay type: cell-based
[8] = system: Nannochloropsis oculata; assay: as above; assay type: cell-based
Experimental: as §6, §7, §8, §9, §10, §11

[9] = system: Nannochloris sp.; assay: as above; assay type: cell-based; settings: for Lipid productivity / Change in Lipids / Specific Growth Rate: Nannochloris sp., 500 mL culture; for Change in Lipids: gravimetric, relative to averaged control without DMSO; for Specific Growth Rate: mid-exponential growth phase
Experimental: as §6, §7, §8, §9, §10, §11

[10] = system: Nannochloropsis salina
Experimental: as §1, §2, §3, §4, §5

[11] = system: microalgae; assay: 500 mL batch culture (growth, gravimetric lipids), algae strain not stated; assay type: cell-based; settings: 500 mL batch cultures (Table 30)
[12] = 200 nM, initial microplate screen, relative to control
[13] = 0.4% by volume, 500 mL culture, day 6 in stationary phase
[14] = DMSO at 0.4% v/v, batch culture
[15] = N. oculata, DMSO average, harvested day 6 of stationary phase, n=3
[16] = 500 mL batch cultures, gravimetric (Table 30)
[17] = 40 μM, initial microplate screen, relative to control

CC1CC(C)C(=O)C(C(O)CC2CC(=O)NC(=O)C2)C1 (centres unmarked) [Cycloheximide, 3-[2-(3,5-Dimethyl-2-oxocyclohexyl)-2-hydroxyethyl]glutarimide]
% Lipid increase based on Nile red fluorescence intensity ([1]; P. tricornutum, 400 nM, added at exponential phase, t=day 7): 408%
% Increase based on Nile Red Fluorescence Intensity ([1]; P. tricornutum, 400 nM, added during exponential phase): 408%
Absorbance (percent increase) [2, 12]: −12.4%
Nile Red percent increase [2, 12]: 178.1%
SFAs (% of total lipids) ([3]; 40 nM (exponential)): 39 % of total lipids
n3 PUFAs (% of UFAs) ([3]; 40 nM (exponential)): 33 % of UFAs
All other PUFAs and MUFAs (% of UFAs) ([3]; 40 nM (exponential)): 67 % of UFAs
UFAs (% of total lipids) ([3]; 40 nM (exponential)): 61 % of total lipids
Nile Red percent increase ([4]; 4.6-41.2 nM, dose-response microplate screen): 87-96%
Nile Red Fluorescence % Increase ([4]; N. oculata, compounds tested at 200 nM, initial screening, p<0.05): 137.9%
effect on lipid levels ([5]; added in the initial phase, <1 μM, greater than 1 μM): minimal increase in lipid levels
effect on cell growth ([5]; added in the initial phase, <1 μM, greater than 1 μM, all four species): inhibitory effect on cell growth

C[S+](C)[O-] [DMSO, dimethylsulfoxide]
effect on growth and lipid levels ([6]; 500 mL batch culture): No significant changes; also recorded: decrease in growth and lipid production; also recorded: no effect, or a small decrease in growth and lipid production
Absorbance at harvest [7, 13]: 1.50 ± 0.13
Dry weight [7, 13]: 429.90 ± 109.74 mg
Extract Weight [7, 13]: 92.83 ± 6.37 mg
Number of Cells [7, 13]: 1.44E+09
Recovered Weight [7, 13]: 393.17 ± 112.84 mg
effect on growth and lipid levels ([7]; 500 mL batch culture): increased growth and lipid levels
increase in lipid levels [7, 14]: 25%
increase in lipid levels ([7]; DMSO, batch culture (Table 18)): up to 50%
increase in lipid levels relative to control without DMSO ([8]; 1.0% DMSO, batch cultures): 78%
effect on growth and lipid levels ([8]; 500 mL batch culture): increased growth and lipid levels
increase in lipid levels [8, 14]: 39%
Absorbance at harvest ([8]; N. oculata, DMSO (0.4%), n=3): 1.776 ± 0.060
Dry weight ([8]; N. oculata, DMSO (0.4%), n=3): 409.2 ± 105.6
Extract Weight ([8]; N. oculata, DMSO (0.4%), n=3): 67.2 ± 7.8
Absorbance at harvest ([8]; N. oculata, DMSO (1%), n=2): 1.827 ± 0.288
Dry weight ([8]; N. oculata, DMSO (1%), n=2): 280.4 ± 88.0
Extract Weight ([8]; N. oculata, DMSO (1%), n=2): 47.2 ± 11.0
Absorbance at harvest [8, 15]: 1.83
Dry weight [8, 15]: 283.27 mg
Extract Weight [8, 15]: 56.83 mg
Number of Cells [8, 15]: 2.32E+09
Recovered Weight [8, 15]: 267.27 mg
effect on growth and lipid levels ([9]; 500 mL batch culture): No significant changes; also recorded: no effect, or a small decrease in growth and lipid production
SFAs (%) ([3]; 1%): 7%
MUFAs (%) ([3]; 1%): 32%
n3 PUFAs (%) ([3]; 1%): 17%
PUFAs (%) ([3]; 1%): 61%
effect on growth and cell density ([10]; >0.8% v/v DMSO, microplates): detrimental effect on growth and cell density
increase in cell density ([4]; 0.4% DMSO, microplate screen): 57%
increase in lipid levels ([4]; 0.4% DMSO, microplate screen): 75%
effect on growth and cell density ([4]; >0.8% v/v DMSO, microplates): detrimental effect on growth and cell density
effect on growth (deviation from control growth) ([5]; 0.4% v/v DMSO): ≤ 10%
effect on growth ([5]; less than 0.4% v/v DMSO, microplates, any of the four microalgae strains): did not show a toxic or detrimental effect on the growth
effect on growth ([5]; ≧1% v/v DMSO): detrimental growth effects

Cc1cc2c(C(C)C)c(O)c(O)c(C=O)c2c(O)c1-c1c(C)cc2c(C(C)C)c(O)c(O)c(C=O)c2c1O [Gossypol, 2,2′-bis-(Formyl-1,6,7-trihydroxy-5-isopropyl-3-methylnaphthalene)]
increase in lipid production ([1]; 0.0757 nM, DMSO delivery): > 250%
Nile Red percent increase ([1]; 0.0757 nM, dose-response microplate screen): 111%
% increase (lipid production) ([1]; 0.0252-165.6 nM): 5-283%
optimal effective concentration (lipid production) ([1]; DMSO delivery): 0.0757 nM
Lipid productivity ([6]; P. tricornutum, 500 mL culture, 76 pM): 5.6 ± 1.9 mgL^−1day^−1
Lipid content ([6]; P. tricornutum, 500 mL culture, 76 pM, dried lipid extract per dry biomass): 24.4 ± 2.7 % w/w
Change in Lipids ([6]; P. tricornutum, 500 mL culture, 76 pM, gravimetric, relative to averaged control without DMSO): 27%
Specific Growth Rate ([6]; P. tricornutum, 500 mL culture, 76 pM, mid-exponential growth phase): 0.21 ± 0.05 day⁻¹
% increase (lipid production) ([10]; 0.0757-6.13 nM (H2O)): 1-27(H2O) %
% increase (lipid production) ([10]; 0.0757-55.2 nM, DMSO delivery): 8-81%
% Lipid increase based on Nile red fluorescence intensity ([10]; N. salina, 6.13 nM, DMSO, t=day 0): 103%
% Increase based on Nile Red Fluorescence Intensity ([10]; N. salina, 6.13 nM, DMSO delivery, added t=day 0): 103%
optimal effective concentration (lipid production) ([10]; lipoxygenase inhibitor microplate screen): 6 nM

CCN(CC)CCCC(C)Nc1c2ccc(Cl)cc2nc2ccc(OC)cc12.Cl.Cl (centres unmarked) [Quinacrine, 6-Chloro-9-(4-diethylamino-1-methylbutyl-amino)-2-methoxyacridine dihydrochloride]
% Increase based on Nile Red Fluorescence Intensity [2]: 135%
% Lipid increase based on Nile red fluorescence intensity ([2]; Nannochloris sp., 49 nM, (water), t=day 0): 136%
% Increase based on Nile Red Fluorescence Intensity ([2]; Nannochloris sp., 49 nM, dissolved in water, added t=day 0): 136%
increase in intracellular lipids compared to the control (Nile red) ([2]; in water, dose-response microplate screening): more than 100%
Lipid productivity ([7]; N. salina, 500 mL culture, 40 nM): 4.5 ± 1.0 mgL^−1day^−1
Lipid content ([7]; N. salina, 500 mL culture, 40 nM, dried lipid extract per dry biomass): 26.5 ± 3.9 % w/w
Change in Lipids ([7]; N. salina, 500 mL culture, 40 nM, gravimetric, relative to averaged control without DMSO): 6%
Specific Growth Rate ([7]; N. salina, 500 mL culture, 40 nM, mid-exponential growth phase): 0.25 ± 0.02 day⁻¹
increase in lipid levels [8, 16]: 51%
Lipid productivity ([8]; N. oculata, 500 mL culture, 400 nM): 5.2 ± 0.6 mgL^−1day^−1
Change in Lipids ([8]; N. oculata, 500 mL culture, 400 nM, gravimetric, relative to averaged control without DMSO): 51%
Specific Growth Rate ([8]; N. oculata, 500 mL culture, 400 nM, mid-exponential growth phase): 0.18 ± 0.04 day⁻¹
increase in lipid levels [9, 16]: 31%
Lipid productivity ([9]; 40 nM): 4.2 ± 1.1 mgL^−1day^−1
Change in Lipids ([9]; 40 nM): 31%
Specific Growth Rate ([9]; 40 nM): 0.18 ± 0.01 day⁻¹
SFAs (% of total lipids) ([3]; 4 nM): 53 % of total lipids
n3 PUFAs (% of UFAs) ([3]; 4 nM): 45 % of UFAs
All other PUFAs and MUFAs (% of UFAs) ([3]; 4 nM): 55 % of UFAs
UFAs (% of total lipids) ([3]; 4 nM): 47 % of total lipids
SFAs (%) ([3]; 400 nM): 3%
MUFAs (%) ([3]; 400 nM): 12%
n3 PUFAs (%) ([3]; 400 nM): 17%
PUFAs (%) ([3]; 400 nM): 76%
effect on growth and lipid levels [11]: positive increases in growth and lipid levels
Nile Red percent increase ([10]; 55 nM, dose-response microplate screen): 103%
% Lipid increase based on Nile red fluorescence intensity ([4]; N. oculata, 244 nM, DMSO, t=day 0): 106%
% Increase based on Nile Red Fluorescence Intensity ([4]; N. oculata, 61 pM, DMSO delivery, added t=day 0): 100%
% Increase based on Nile Red Fluorescence Intensity ([4]; N. oculata, 244 pM, DMSO delivery, added t=day 0): 106%
% Increase based on Nile Red Fluorescence Intensity ([4]; N. oculata, 976 pM, DMSO delivery, added t=day 0): 93%
% Increase based on Nile Red Fluorescence Intensity ([4]; N. oculata, 4 nM, DMSO delivery, added t=day 0): 75%
% Increase based on Nile Red Fluorescence Intensity ([4]; N. oculata, 15.6 nM, DMSO delivery, added t=day 0): 66%

Oc1ccc(-c2nc(-c3ccncc3)c(-c3ccc(F)cc3)[nH]2)cc1 [SB202190, 4-(4-Flurophenyl)-2-(4-hydroxyphenyl)-5-(4-pyridyl)-1H-imidazole]
Absorbance (percent increase) [1, 17]: +4.26%
Nile Red percent increase [1, 17]: 112.4%
increase in lipid levels ([1]; DMSO as delivery agent): 26%
Nile Red Fluorescence % Increase ([1]; P. tricornutum, compounds tested at 40 μM, initial screening, p<0.05): 115.0%
increase in lipid levels ([1]; water as delivery agent): 99%
Nile Red percent increase ([2]; 123-457 pM, dose-response microplate screen): 103-175%
Nile Red Fluorescence % Increase ([2]; Nannochloris sp., compounds tested at 20 μM, initial screening, p<0.05): 54.6% and 28.8%
Lipid productivity ([9]; 4 nM): 3.0 ± 1.7 mgL^−1day^−1
Lipid productivity ([9]; 4 nM, exponential addition): 4.0 ± 1.6 mgL^−1day^−1
Change in Lipids ([9]; 4 nM, exponential addition): 38%
Specific Growth Rate ([9]; 4 nM, exponential addition): 0.15 ± 0.08 day⁻¹
Change in Lipids ([9]; 4 nM): 3%
Specific Growth Rate ([9]; 4 nM): 0.17 ± 0.02 day⁻¹
increase in lipid levels ([9]; batch culture, added during the exponential growth phase): 38%
% Lipid increase based on Nile red fluorescence intensity ([4]; N. oculata, 400 fM, added at exponential phase, t=day 7): 95%
% Increase based on Nile Red Fluorescence Intensity ([4]; N. oculata, 400 fM, added during exponential phase): 95%
increase in lipid levels (Nile Red) ([4]; compound added at t=day 0): 45%
increase in lipid levels (Nile Red) ([4]; compound added in exponential growth phase (Day 7)): 95%
